Paper doi:10.1101/2023.03.04.531071v1 (biorxiv, 2023)

Key:
Xanthine oxidase (XO) [1] = molecular target: T1, Xanthine oxidase (XO) (Bos taurus, UniProt P80457); test: uric acid formation, absorbance […] nm; assay type: biochemical
Xanthine oxidase (XO) [2] = molecular target: T1, Xanthine oxidase (XO); test: uric acid formation, Morrison fit; assay type: biochemical

T1 sequence (P80457 2-1332): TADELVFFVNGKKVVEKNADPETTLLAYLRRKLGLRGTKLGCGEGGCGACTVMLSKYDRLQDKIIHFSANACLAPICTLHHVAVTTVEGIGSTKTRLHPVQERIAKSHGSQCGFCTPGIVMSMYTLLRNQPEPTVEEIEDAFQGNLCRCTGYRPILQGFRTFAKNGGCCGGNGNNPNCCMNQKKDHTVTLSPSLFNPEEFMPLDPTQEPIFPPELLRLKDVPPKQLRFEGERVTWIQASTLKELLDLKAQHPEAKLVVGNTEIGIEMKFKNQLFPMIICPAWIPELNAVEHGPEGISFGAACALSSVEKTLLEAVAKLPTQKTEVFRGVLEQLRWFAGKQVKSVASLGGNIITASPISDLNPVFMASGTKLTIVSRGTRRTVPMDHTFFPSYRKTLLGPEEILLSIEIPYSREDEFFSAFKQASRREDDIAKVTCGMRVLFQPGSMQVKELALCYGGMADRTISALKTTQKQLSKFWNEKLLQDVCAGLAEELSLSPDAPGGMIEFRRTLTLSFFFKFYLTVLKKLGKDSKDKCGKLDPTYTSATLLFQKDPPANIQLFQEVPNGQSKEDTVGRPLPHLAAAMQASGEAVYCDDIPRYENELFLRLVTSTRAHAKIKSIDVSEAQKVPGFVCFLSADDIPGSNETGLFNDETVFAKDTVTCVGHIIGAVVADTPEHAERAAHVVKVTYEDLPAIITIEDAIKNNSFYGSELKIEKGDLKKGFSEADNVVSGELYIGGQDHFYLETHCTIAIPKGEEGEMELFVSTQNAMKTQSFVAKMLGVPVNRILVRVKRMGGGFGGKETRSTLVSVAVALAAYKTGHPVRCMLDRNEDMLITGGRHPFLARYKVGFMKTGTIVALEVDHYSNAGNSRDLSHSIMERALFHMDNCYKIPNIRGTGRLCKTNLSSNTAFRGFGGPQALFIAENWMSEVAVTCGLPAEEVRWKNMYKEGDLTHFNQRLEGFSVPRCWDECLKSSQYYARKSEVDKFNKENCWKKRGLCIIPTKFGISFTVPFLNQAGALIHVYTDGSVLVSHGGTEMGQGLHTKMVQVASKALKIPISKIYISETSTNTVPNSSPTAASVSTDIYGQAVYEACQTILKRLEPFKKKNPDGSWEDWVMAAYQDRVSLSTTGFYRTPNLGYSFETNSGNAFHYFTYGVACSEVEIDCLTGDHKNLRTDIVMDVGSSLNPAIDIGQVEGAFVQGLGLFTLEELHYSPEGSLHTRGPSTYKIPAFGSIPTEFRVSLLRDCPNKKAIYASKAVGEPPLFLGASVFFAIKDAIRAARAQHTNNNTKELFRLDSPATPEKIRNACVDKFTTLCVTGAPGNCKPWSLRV

Structure (SMILES)	IC50 (Xanthine oxidase (XO) [1]) [µM]	Ki (Xanthine oxidase (XO) [2]) [µM]
Cc1cc(O)c2c(c1)C(=O)c1cccc(O)c1C2=O [Chrysophanol]	200.9 ± 0.04	38.7 ± 2.71
COc1cc(C)cc2c1C(=O)c1c(O)cccc1C2=O [1-O-methyl chrysophanol]	24.8 ± 0.072	2.22 ± 0.307
